Experimental data published in patent US20090131354A1, “miR-126 REGULATED GENES AND PATHWAYS AS TARGETS FOR THERAPEUTIC INTERVENTION” (priority 2007, published 2009).

Tested on: A549 cells
Experiment: mRNA array gene expression analysis after transfection
Type: cell-based, human
Conditions: A549, 30 nM

## hsa-miR-126 (UCGUACCGUGAGUAAUAAUGC; synthetic pre-miR form, further chemistry not given here) [Synthetic hsa-miR-126 (Pre-miR™-hsa-miR-126, Ambion cat. no. AM17100)]
  Δ log2 LBA1 mRNA: 1.07 log2
  Δ log2 LCN2 mRNA: 1.032 log2
  Δ log2 LOC93349 mRNA: 1.021 log2
  Δ log2 LOC257407 mRNA: 1.211 log2
  Δ log2 LRP12 mRNA: −2.094 log2
  Δ log2 LXN mRNA: 1.017 log2
  Δ log2 M6PRBP1 mRNA: −1.074 log2
  Δ log2 MAP1B mRNA: −0.706 log2
  Δ log2 MAP3K1 mRNA: 1.609 log2
  Δ log2 MAPK6 mRNA: −0.81 log2
  Δ log2 MASK mRNA: −1.4 log2
  Δ log2 MAWBP mRNA: 1.126 log2
  Δ log2 MAZ mRNA: −1.133 log2
  Δ log2 MCL1 mRNA: 1.394 log2
  Δ log2 MET mRNA: −0.9508 log2
  Δ log2 MICAL2 mRNA: −1.182 log2
  Δ log2 MMP7 mRNA: 1.127 log2
  Δ log2 MR1 mRNA: 0.702 log2
  Δ log2 MTUS1 mRNA: 0.7009 log2
  Δ log2 MYBL1 mRNA: −1.008 log2
  Δ log2 NAB1 mRNA: −0.7242 log2
  Δ log2 NCF2 mRNA: −0.8706 log2
  Δ log2 NEK4 mRNA: −1.197 log2
  Δ log2 NF1 mRNA: −1.383 log2
  Δ log2 NF2 mRNA: −0.8288 log2
  Δ log2 NID1 mRNA: 0.8833 log2
  Δ log2 NPTX1 mRNA: −1.204 log2
  Δ log2 NR1H4 mRNA: 1.063 log2
  Δ log2 NR2F1 mRNA: 0.8754 log2
  Δ log2 NR4A2 mRNA: 1.19 log2
  Δ log2 NRIP1 mRNA: 0.7196 log2
  Δ log2 NUCKS mRNA: 2.05 log2
  Δ log2 OLFML3 mRNA: −1.333 log2
  Δ log2 OXTR mRNA: −1.374 log2
  Δ log2 PCAF mRNA: −1.071 log2
  Δ log2 PDCD4 mRNA: 1.094 log2
  Δ log2 PDK4 mRNA: 1.686 log2
  Δ log2 PDXK mRNA: −1.142 log2
  Δ log2 PDZK1IP1 mRNA: 0.8906 log2
  Δ log2 PEX10 mRNA: −0.7177 log2
  Δ log2 PGK1 mRNA: 1.563 log2
  Δ log2 PHACTR2 mRNA: 0.8791 log2
  Δ log2 PHTF2 mRNA: −1.334 log2
  Δ log2 PLA1A mRNA: 1.623 log2
  Δ log2 PLA2G4A mRNA: 0.8899 log2
  Δ log2 PLCB1 mRNA: 1.421 log2
  Δ log2 PLEC1 mRNA: −0.9035 log2
  Δ log2 PLK1 mRNA: −0.7295 log2
  Δ log2 PLOD2 mRNA: −1.204 log2
  Δ log2 PMCH mRNA: 0.9697 log2
  Δ log2 PMM1 mRNA: −1.034 log2
  Δ log2 PPP3CB mRNA: −1.185 log2
  Δ log2 PRKCA mRNA: −1.083 log2
  Δ log2 PRO1843 mRNA: 1.386 log2
  Δ log2 PROS1 mRNA: 1.021 log2
  Δ log2 PSME3 mRNA: −0.8427 log2
  Δ log2 PTENP1 mRNA: 0.8904 log2
  Δ log2 PTK9 mRNA: 1.028 log2
  Δ log2 PTP4A1 mRNA: 0.7259 log2
  Δ log2 PXN mRNA: −0.8029 log2
  Δ log2 Pfs2 mRNA: −0.7674 log2
  Δ log2 QDPR mRNA: −1.048 log2
  Δ log2 QKI mRNA: 0.7094 log2
  Δ log2 RAB2 mRNA: 1.459 log2
  Δ log2 RAB11FIP2 mRNA: −0.8417 log2
  Δ log2 RAB40B mRNA: 1.166 log2
  Δ log2 RABL2B /// RABL2A mRNA: −0.8805 log2
  Δ log2 RAFTLIN mRNA: 0.9753 log2
  Δ log2 RARRES1 mRNA: 1.523 log2
  Δ log2 RARRES3 mRNA: 1.399 log2
  Δ log2 RASSF2 mRNA: −1.355 log2
  Δ log2 RBP4 mRNA: 1.037 log2
  Δ log2 RGC32 mRNA: 1.701 log2
  Δ log2 RHEB mRNA: 1.113 log2
  Δ log2 RHOB mRNA: −1.015 log2
  Δ log2 RHOBTB1 mRNA: 1.197 log2
  Δ log2 RIG mRNA: 0.9993 log2
  Δ log2 RIP mRNA: 1.299 log2
  Δ log2 RNASE4 mRNA: 1.351 log2
  Δ log2 RNF14 mRNA: −1.293 log2
  Δ log2 RPL14 mRNA: 0.7937 log2
  Δ log2 RPL38 mRNA: 1.084 log2
  Δ log2 RPS11 mRNA: 1.097 log2
  Δ log2 RRAGD mRNA: 1.193 log2
  Δ log2 SCARB2 mRNA: 0.9635 log2
  Δ log2 SCML1 mRNA: 0.9483 log2
  Δ log2 SDC1 mRNA: −0.9726 log2
  Δ log2 SDC4 mRNA: −1.316 log2
  Δ log2 SEC24A mRNA: 0.7724 log2
  Δ log2 SELENBP1 mRNA: 1.193 log2
  Δ log2 SEPP1 mRNA: 2.014 log2
  Δ log2 SEPT9 mRNA: −0.7282 log2
  Δ log2 SERPINA6 mRNA: 1.032 log2
  Δ log2 SERPINE1 mRNA: −1.338 log2
  Δ log2 SF3B4 mRNA: −1.044 log2
  Δ log2 SGPL1 mRNA: −1.59 log2
  Δ log2 SGPP1 mRNA: −1.773 log2
  Δ log2 SH3YL1 mRNA: 1.026 log2
  Δ log2 SLC2A3 mRNA: 0.7467 log2
  Δ log2 SLC3A2 mRNA: −1.221 log2
  Δ log2 SLC4A4 mRNA: −1.661 log2
  Δ log2 SLC4A7 mRNA: −0.9064 log2
  Δ log2 SLC7A5 mRNA: −1.958 log2
  Δ log2 SLC7A11 mRNA: −0.721 log2
  Δ log2 SLC26A2 mRNA: −1.615 log2
  Δ log2 SLC35D1 mRNA: −1.443 log2
  Δ log2 SLC39A6 mRNA: −2.468 log2
  Δ log2 SMARCA2 mRNA: 0.8119 log2
  Δ log2 SMTN mRNA: −1.071 log2
  Δ log2 SNRPD1 mRNA: −0.7027 log2
  Δ log2 SOCS2 mRNA: −0.7193 log2
  Δ log2 SORBS3 mRNA: −1.106 log2
  Δ log2 SPFH2 mRNA: 0.9346 log2
  Δ log2 SRD5A1 mRNA: −0.9713 log2
  Δ log2 STC1 mRNA: 0.8696 log2
  Δ log2 STK24 mRNA: −1.021 log2
  Δ log2 STX3A mRNA: 0.7983 log2
  Δ log2 SUMO2 mRNA: 0.9996 log2
  Δ log2 TAGLN mRNA: −0.9221 log2
  Δ log2 TARDBP mRNA: −1.05 log2
  Δ log2 TFG mRNA: 0.9981 log2
  Δ log2 TFPI mRNA: 1.003 log2
  Δ log2 TGFBR2 mRNA: 1.068 log2
  Δ log2 TGFBR3 mRNA: 1.082 log2
  Δ log2 THBS1 mRNA: −0.9922 log2
  Δ log2 TJP2 mRNA: 0.8301 log2
  Δ log2 TLR3 mRNA: 1.096 log2
  Δ log2 TM4SF20 mRNA: 0.9319 log2
  Δ log2 TNFAIP6 mRNA: −1.542 log2
  Δ log2 TNFRSFI2A mRNA: −1.07 log2
  Δ log2 TNFSF10 mRNA: 1.066 log2
  Δ log2 TNRC9 mRNA: 0.8141 log2
  Δ log2 TNS1 mRNA: 1.235 log2
  Δ log2 TP73L mRNA: 0.7602 log2
  Δ log2 TRA1 mRNA: 1.982 log2
  Δ log2 TRIM14 mRNA: −1.157 log2
  Δ log2 TRIM22 mRNA: 1.379 log2
  Δ log2 TSC mRNA: 1.372 log2
  Δ log2 TSPAN7 mRNA: 0.8049 log2
  Δ log2 TSPAN8 mRNA: 1.266 log2
  Δ log2 TTC3 mRNA: 0.7079 log2
  Δ log2 TUBB2 /// TUBB-PARALOG mRNA: −0.904 log2
  Δ log2 TXN mRNA: 1.543 log2
  Δ log2 TncRNA: 1.613 log2
  Δ log2 UAP1 mRNA: −1.613 log2
  Δ log2 UBE2L6 mRNA: 0.9119 log2
  Δ log2 UPK1B mRNA: −1.042 log2
  Δ log2 VDAC1 mRNA: −1.181 log2
  Δ log2 VDAC3 mRNA: 1.063 log2
  Δ log2 VIL2 mRNA: 0.7604 log2
  Δ log2 WDR1 mRNA: −0.8373 log2
  Δ log2 WDR41 mRNA: −1.49 log2
  Δ log2 WEE1 mRNA: 0.8892 log2
  Δ log2 WNT7B mRNA: −1.114 log2
  Δ log2 XM_371853 (gene symbol —) mRNA: 0.9326 log2
  Δ log2 XTP2 mRNA: 0.9083 log2
  Δ log2 YKT6 mRNA: −1.176 log2
  Δ log2 YOD1 mRNA: 0.869 log2
  Δ log2 YTHDF3 mRNA: −0.9397 log2
  Δ log2 ZNF467 mRNA: 1.211 log2
